Reference: US9580430B2, “9H-pyrimido[4,5-B]indoles and related analogs as BET bromodomain inhibitors” (THE REGENTS OF THE UNIVERSITY OF MICHIGAN, priority 2014, dated 2017)

Assays:
MDA-MB-436 = assay: Cell growth inhibition, MDA-MB-436 breast cancer cells (WST-8); assay type: cell-based; details: Homo sapiens, MDA-MB-436, 96 h; 4 days; read-out: IC50 (nM) MDA-MB-436 Cell Line (WST assay)
Summary of the method: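 IC50 was computed from WST-8-based cell counting in MDA-MB-436 cells, with absorbance read at 450 nm.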

MOLM-13 = assay: Cell growth inhibition, MOLM-13 leukemia cells (CellTiter-Glo); assay type: cell-based; details: Homo sapiens, MOLM-13, 96 h; 4 days; read-out: IC50 (nM) MOLM-13 Cell Line (CellTiter-Glo assay)
Summary of the method: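 MOLM-13 leukemia cells treated with compounds; viability read by CellTiter-Glo luminescence after 10-20 min reagent incubation at room temperature. IC50 derived from luminescent signal.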

recombinant BRD4 BD1 = biological target: T1, recombinant BRD4 BD1 (Homo sapiens, UniProt O60885); assay: Competitive fluorescence-polarization (FP) binding assay, BRD4 BD1; details: competitive FP assay; protein 10 nM, probe […]; read-out: IC50 (nM) BRD4 BD1; further: probe 1.5 nM
T1 construct: for recombinant BRD4 BD1 and BRD4 BD2 proteins
Summary of the method: (§1)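 FP competition with FAM-labelled probe (ZBA248 or BRD-1F) against preincubated protein/probe complex; BD1 at 10 nM and BD2 at 6 nM final, in 100 mM potassium phosphate pH 6.5, 0.01% Triton X-100. 30 min, room temperature. IC50 by nonlinear regression; Ki also derived, using probe Kd from protein saturation.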

recombinant BRD4 BD2 = biological target: T2, recombinant BRD4 BD2 (Homo sapiens, UniProt O60885); assay: Competitive fluorescence-polarization (FP) binding assay, BRD4 BD2; details: competitive FP assay; protein 6 nM, probe […]; read-out: IC50 (nM) BRD4 BD2; further: probe 1.5 nM
T2 construct: for recombinant BRD4 BD1 and BRD4 BD2 proteins
Summary of the method: as §1

## COc1cc2c(cc1-c1c(C)noc1C)[nH]c1nc(C)nc(Nc3nn(C)cc3C(C)C)c12 [compound 78, 7-(3,5-dimethylisoxazol-4-yl)-N-(4-isopropyl-1-methyl-1H-pyrazol-3-yl)-6-methoxy-2-methyl-9H-pyrimido[4,5-b] indol-4-amine]
MDA-MB-436
  IC50: 271 nM
MOLM-13
  IC50: 97.4 nM
Recombinant BRD4 BD1
  IC50: 16 nM
Recombinant BRD4 BD2
  IC50: 63.5 nM

## COc1cc2c(cc1-c1c(C)noc1C)[nH]c1nc(C)nc(Nc3c(-c4ccccc4)nn(C(C)C)c3C)c12 [Cpd. No. 4, 7-(3,5-Dimethylisoxazol-4-yl)-N-(1-isopropyl-5-methyl-3-phenyl-1H-pyrazol-4-yl)-6-methoxy-2-methyl-9H-pyrimido[4,5-b]indol-4-amine]
MDA-MB-436
  IC50: 249 nM
MOLM-13
  IC50: 69.3 nM
Recombinant BRD4 BD1
  IC50: 52.9 nM
Recombinant BRD4 BD2
  IC50: 21.7 nM

## COc1cc2c(cc1-c1c(C)noc1C)[nH]c1nc(C)nc(Nc3cc(C)n(C)n3)c12 [Cpd. No. 115, N-(1,5-Dimethyl-1H-pyrazol-3-yl)-7-(3,5-dimethylisoxazol-4-yl)-6-methoxy-2-methyl-9H-pyrimido[4,5-b]indol-4-amine]
MDA-MB-436
  IC50: 81.1 nM
MOLM-13
  IC50: 30.7 nM
Recombinant BRD4 BD1
  IC50: 23.2 nM
Recombinant BRD4 BD2
  IC50: 136 nM

## COc1cc2c(cc1-c1c(C)noc1C)[nH]c1nc(C)nc(Nc3sc(C)nc3C)c12 [Cpd. No. 177, N-(7-(3,5-dimethylisoxazol-4-yl)-6-methoxy-2-methyl-9H-pyrimido[4,5-b]indol-4-yl)-2,4-dimethylthiazol-5-amine]
MDA-MB-436
  IC50: 110 nM
MOLM-13
  IC50: 78.6 nM
Recombinant BRD4 BD1
  IC50: 7.9 nM
Recombinant BRD4 BD2
  IC50: 13.2 nM

## COc1cc2c(cc1-c1c(C)noc1C)[nH]c1nc(C)nc(Nc3ccnn3C)c12 [Cpd. No. 172, 7-(3,5-dimethylisoxazol-4-yl)-6-methoxy-2-methyl-N-(1-methyl-1H-pyrazol-5-yl)-9H-pyrimido[4,5-b]indol-4-amine]
MDA-MB-436
  IC50: 634 nM
MOLM-13
  IC50: 453 nM
Recombinant BRD4 BD1
  IC50: 57.2 nM
Recombinant BRD4 BD2
  IC50: 49.5 nM

## COc1cc2c(cc1-c1c(C)noc1C)[nH]c1nc(C)nc(Nc3ccnn3C3CCCC3)c12 [Cpd. No. 178, N-(1-cyclopentyl-1H-pyrazol-5-yl)-7-(3,5-dimethylisoxazol-4-yl)-6-methoxy-2-methyl-9H-pyrimido[4,5-b]indol-4-amine]
MDA-MB-436
  IC50: 52.9 nM
MOLM-13
  IC50: 22.5 nM
Recombinant BRD4 BD1
  IC50: 9 nM
Recombinant BRD4 BD2
  IC50: 0.6 nM

## COc1cc2c(cc1-c1c(C)noc1C)[nH]c1nc(C)nc(Nc3noc(C)c3C)c12 [Cpd. No. 222, N-(7-(3,5-dimethylisoxazol-4-yl)-6-methoxy-2-methyl-9H-pyrimido[4,5-b]indol-4-yl)-4,5-dimethylisoxazol-3-amine]
MDA-MB-436
  IC50: 731 nM
MOLM-13
  IC50: 629 nM
Recombinant BRD4 BD1
  IC50: 183 nM
Recombinant BRD4 BD2
  IC50: 276 nM

## COc1cc2c(cc1-c1c(C)noc1C)[nH]c1nc(C)nc(Nc3nn(C)c4ncccc34)c12 [Cpd. No. 10, 7-(3,5-Dimethylisoxazol-4-yl)-6-methoxy-2-methyl-N-(1-methyl-1H-pyrazolo[3,4-b]pyridin-3-yl)-9H-pyrimido[4,5-b]indol-4-amine]
MDA-MB-436
  IC50: 138 nM
MOLM-13
  IC50: 45.6 nM
Recombinant BRD4 BD1
  IC50: 21.5 nM
Recombinant BRD4 BD2
  IC50: 43.3 nM

## COc1cc2c(cc1-c1c(C)noc1C)[nH]c1nc(C)nc(Nc3ccc(OC)c4ccccc34)c12 [Cpd. No. 100, 7-(3,5-dimethylisoxazol-4-yl)-6-methoxy-N-(4-methoxynaphthalen-1-yl)-2-methyl-9H-pyrimido[4,5-b]indol-4-amine]
MDA-MB-436
  IC50: 235 nM
MOLM-13
  IC50: 147 nM
Recombinant BRD4 BD1
  IC50: 99 nM
Recombinant BRD4 BD2
  IC50: 89 nM

## COc1cc2c(cc1-c1c(C)noc1C)[nH]c1nc(C)nc(Nc3cccc4c3CCN4)c12 [Cpd. No. 231, 7-(3,5-dimethylisoxazol-4-yl)-N-(indolin-4-yl)-6-methoxy-2-methyl-9H-pyrimido[4,5-b]indol-4-amine]
MDA-MB-436
  IC50: 79 nM
MOLM-13
  IC50: 28 nM
Recombinant BRD4 BD1
  IC50: 35 nM
Recombinant BRD4 BD2
  IC50: 44 nM
